Experimental findings from patent publication US20250230154A1, “COMPOUND HAVING SHP2 PROTEIN DEGRADING ACTIVITY, AND MEDICAL USES THEREOF” (UBIX THERAPEUTICS, INC., priority 2021, published 2025) are described below.

This assay concerns the target T1, SHP2 protein (Homo sapiens, UniProt Q06124).
T1 sequence (Q06124 1-593): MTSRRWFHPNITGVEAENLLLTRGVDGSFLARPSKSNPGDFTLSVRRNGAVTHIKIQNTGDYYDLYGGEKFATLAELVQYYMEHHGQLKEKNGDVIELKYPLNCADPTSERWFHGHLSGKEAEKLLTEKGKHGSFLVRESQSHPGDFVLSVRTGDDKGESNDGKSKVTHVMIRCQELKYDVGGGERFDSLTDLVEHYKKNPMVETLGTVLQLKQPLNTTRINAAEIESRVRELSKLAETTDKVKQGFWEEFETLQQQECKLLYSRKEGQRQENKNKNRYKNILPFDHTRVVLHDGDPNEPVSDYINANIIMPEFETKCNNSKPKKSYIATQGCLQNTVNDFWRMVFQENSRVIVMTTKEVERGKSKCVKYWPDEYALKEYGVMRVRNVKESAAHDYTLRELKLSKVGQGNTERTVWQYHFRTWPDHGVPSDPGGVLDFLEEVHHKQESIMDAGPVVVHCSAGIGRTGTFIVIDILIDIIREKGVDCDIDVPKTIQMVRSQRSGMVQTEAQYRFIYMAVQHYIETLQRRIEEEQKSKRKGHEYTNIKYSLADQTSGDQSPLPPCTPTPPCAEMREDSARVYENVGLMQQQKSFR
Briefly: Measurement of SHP2 protein degradation in KYSE-520 cells (western blotting). In kind it is cell-based. The settings on record: 24 hours. The arrangement: endogenous in cells. The method, then:
Experimental Example 1: Measurement of SHP2 Protein Degradation in KYSE-520 Cells
KYSE-520 cells were treated with the synthesized Example compound, and the amount of SHP2 protein present in the cells was measured using western blotting detection. The protocol of the experiment conducted using KYSE-520 cells was as follows:
[Culture] KYSE-520 cells resuspended in RPMI1640 MEDIUM (Hyclone, SH30027.01) containing 5% FBS (Hyclone, SV30207.02) and 1% Penicillin-streptomycin (Welgene, LS 202-02) were seeded at a density of 2.5×10^5/well in a 6-well plate in an amount of 2 ml each and incubated for 2 days.
[Compound treatment] […] After 24 hours, cells were harvested. For the negative control group, DMSO diluted 1/10 to the media (3 mL DMSO+27 mL media) was added.
[Cell Lysis and Protein Quantification] Lysis buffer was prepared as follows: […] of RIPA buffer (Biosesang, RC2038-050-00)+0.5 mM PMSF (SIGMA, P7626)+1× Protease/Phosphatase Inhibitor (Cell signaling, 5872S) per well was added and placed on ice for 30 minutes (vortexing at 0 and 30 minutes, respectively). After sonication process (10 seconds pulse, 30 seconds rest, 5 cycles, 70% amplification), centrifugation (15000 g, 15 min, 4° C.) was performed, and then only the supernatant was taken and transferred to a new microtube. The sample was diluted ¼ with RIPA buffer in a 96-well plate, and mixed with A:B=50:1 of the BCA Protein Assay Kit (iNtRON, 21071). […] each of the mixture was left at 37° C. for 30 minutes, and cooled for 10 minutes. Then, absorbance was measured at 562 nm with the SYNERGY H1 microplate reader from BioTek. After making a sample by quantifying the protein with the measured value, boiling was performed at 70° C. for 10 minutes. At this time, the sample buffer used was a mixture of NuPAGE or Bolt 4× sample buffer (Invitrogen) and each 10× sample reducing agent according to the gel to be used, and RIPA buffer was used for protein dilution.
[Western blotting detection method] The same amount of sample was loaded on NuPAGE or Bolt Bis-tris 4-12% gradient gel and run (200 V, 35 minutes). It was transferred to 0.2 mm NC membrane with Trans-blot Turbo (BIO-RAD) (1.3 A constant, 25 V limit, 15 minutes). Blocking was performed at room temperature for 1 hour with Skim milk or Intercept Blocking Buffer (LI-COR, 927-60001):0.1% TBST=1:1. Anti SHPTP2 Mouse (1:500 in 5% Skim milk/TBST, size: 70 kDa, Santacruz sc-7384) was incubated overnight at 4° C., and Anti GAPDH Rabbit (1:2,000 in 5% BSA/0.2% TBST, size: 37 kDa, CST #2118) was incubated at room temperature for 1 hour 30 minutes or 3 hours. It was washed 3 times for 5 minutes each with 0.2% TBST washing buffer. Secondary antibody Anti-Rabbit IgG (1:5,000 in 5% Skim milk/0.2% TBST, CST), and IRDye® 680RD Goat anti-Rabbit IgG Secondary Antibody (1:10,000 in 5% BSA/0.2% TBST, LI-COR 926-68071) were incubated for 45 minutes on a rocker at room temperature. It was washed 5 times for 5 minutes each with 0.2% TBST washing buffer and detected with LI-COR's Odyssey. At this time, SHPTP2 was detected using SuperSignal West Pico PLUS Chemiluminescent Substrate, and house-keeping genes were also detected.
In the results of Table 4 below, Compounds 1-7, 13-19, and 21-26 are results in KYSE-520 cells, and the others are results in MV-4-11 cells.

Turning to `Cc1ncsc1-c1ccc(CNC(=O)[C@@H]2C[C@@H](O)CN2C(=O)[C@@H](NC(=O)C2(F)CC2)C(C)(C)C)c(OCCCN2CCC(CC(=O)Nc3cccc(Sc4cnc(N5CCC(C)(CN)CC5)cn4)c3Cl)CC2)c1` [Example 6, (2S,4R)—N-(2-(3-(4-(2-((3-((5-(4-(aminomethyl)-4-methylpiperidin-1-yl)pyrazin-2-yl)thio)-2-chlorophenyl)amino)-2-oxoethyl)piperidin-1-yl)propoxy)-4-(4-methylthiazol-5-yl)benzyl)-1-((S)-2-(1-fluorocyclopropane-1-carboxamido)-3,3-dimethylbutanoyl)-4-hydroxypyrrolidine-2-carboxamide], the “SHP2 degradation (%) 10 nM” value was determined as 19.5%, the “SHP2 degradation (%) 100 nM” value was 82.4% and the “SHP2 degradation (%) 1000 nM” value amounted to 95.0%.

For the compound `Cc1ncsc1-c1ccc(CNC(=O)[C@@H]2C[C@@H](O)CN2C(=O)[C@@H](NC(=O)C2(F)CC2)C(C)(C)C)c(OCCCC(=O)N2CCC(CCCC(=O)Nc3cccc(Sc4cnc(N5CCC(C)(CN)CC5)cn4)c3Cl)CC2)c1` [Example 25, (2S,4R)—N-(2-(4-(4-(4-((3-((5-(4-(aminomethyl)-4-methylpiperidin-1-yl)pyrazin-2-yl)thio)-2-chlorophenyl)amino)-4-oxobutyl)piperidin-1-yl)-4-oxobutoxy)-4-(4-methylthiazol-5-yl)benzyl)-1-((S)-2-(1-fluorocyclopropane-1-carboxamido)-3,3-dimethylbutanoyl)-4-hydroxypyrrolidine-2-carboxamide], the “SHP2 degradation (%) 100 nM” value amounted to 61.8% and the “SHP2 degradation (%) 1000 nM” value was 94.7%.

Take `Cc1ncsc1-c1ccc(CNC(=O)[C@@H]2C[C@@H](O)CN2C(=O)[C@@H](NC(=O)C2(F)CC2)C(C)(C)C)c(OCCCC(=O)N2CCC(CCC(=O)Nc3cccc(Sc4cnc(N5CCC(C)(CN)CC5)cn4)c3Cl)CC2)c1` [Example 24, (2S,4R)—N-(2-(4-(4-(3-((3-((5-(4-(aminomethyl)-4-methylpiperidin-1-yl)pyrazin-2-yl)thio)-2-chlorophenyl)amino)-3-oxopropyl)piperidin-1-yl)-4-oxobutoxy)-4-(4-methylthiazol-5-yl)benzyl)-1-((S)-2-(1-fluorocyclopropane-1-carboxamido)-3,3-dimethylbutanoyl)-4-hydroxypyrrolidine-2-carboxamide]: the “SHP2 degradation (%) 10 nM” value is listed as 15.1%, the “SHP2 degradation (%) 100 nM” value came to 52.1% and the “SHP2 degradation (%) 1000 nM” value is on record as 74.7%.

Turning to `Cc1ncsc1-c1ccc(CNC(=O)[C@@H]2C[C@@H](O)CN2C(=O)[C@@H](NC(=O)C2(F)CC2)C(C)(C)C)c(OCCCCCCN2CCC(CCCC(=O)Nc3cccc(Sc4cnc(N5CCC(C)(CN)CC5)cn4)c3Cl)CC2)c1` [Example 18, (2S,4R)—N-(2-((6-(4-(4-((3-((5-(4-(aminomethyl)-4-methylpiperidin-1-yl)pyrazin-2-yl)thio)-2-chlorophenyl)amino)-4-oxobutyl)piperidin-1-yl)hexyl)oxy)-4-(4-methylthiazol-5-yl)benzyl)-1-((S)-2-(1-fluorocyclopropane-1-carboxamido)-3,3-dimethylbutanoyl)-4-hydroxypyrrolidine-2-carboxamide], the “SHP2 degradation (%) 10 nM” value was −9.0%, the “SHP2 degradation (%) 100 nM” value worked out at 56.9% and the “SHP2 degradation (%) 1000 nM” value was 91.8%.

As to `Cc1ncsc1-c1ccc(CNC(=O)[C@@H]2C[C@@H](O)CN2C(=O)[C@@H](NC(=O)C2(F)CC2)C(C)(C)C)c(OCCCCCCCCN2CCC(C(=O)Nc3cccc(Sc4cnc(N5CCC(C)(CN)CC5)cn4)c3Cl)CC2)c1` [Example 4, N-(3-((5-(4-(aminomethyl)-4-methylpiperidin-1-yl)pyrazin-2-yl)thio)-2-chlorophenyl)-1-(8-(2-(((2S,4R)-1-((S)-2-(1-fluorocyclopropane-1-carboxamido)-3,3-dimethylbutanoyl)-4-hydroxypyrrolidine-2-carboxamido)methyl)-5-(4-methylthiazol-5-yl)phenoxy)octyl)piperidine-4-carboxamide], the “SHP2 degradation (%) 10 nM” value is reported as 4.1%, the “SHP2 degradation (%) 100 nM” value was 60.7% and the “SHP2 degradation (%) 1000 nM” value is 90.7%.

Regarding `Cc1ncsc1-c1ccc(CNC(=O)[C@@H]2C[C@@H](O)CN2C(=O)[C@@H](NC(=O)C2(F)CC2)C(C)(C)C)c(OCCCCN2CCC(CC(=O)Nc3cccc(Sc4cnc(N5CCC(C)(CN)CC5)cn4)c3Cl)CC2)c1` [Example 7, (2S,4R)—N-(2-(4-(4-(2-((3-((5-(4-(aminomethyl)-4-methylpiperidin-1-yl)pyrazin-2-yl)thio)-2-chlorophenyl)amino)-2-oxoethyl)piperidin-1-yl)butoxy)-4-(4-methylthiazol-5-yl)benzyl)-1-((S)-2-(1-fluorocyclopropane-1-carboxamido)-3,3-dimethylbutanoyl)-4-hydroxypyrrolidine-2-carboxamide], the “SHP2 degradation (%) 10 nM” value was determined as 25.4%, the “SHP2 degradation (%) 100 nM” value amounted to 75.2% and the “SHP2 degradation (%) 1000 nM” value is 93.8%.

For the compound `Cc1ncsc1-c1ccc(CNC(=O)[C@@H]2C[C@@H](O)CN2C(=O)[C@@H](NC(=O)C2(F)CC2)C(C)(C)C)c(OCCCC(=O)N2CCC(C(=O)Nc3cccc(Sc4cnc(N5CCC(C)(CN)CC5)cn4)c3Cl)CC2)c1` [Example 21, N-(3-((5-(4-(aminomethyl)-4-methylpiperidin-1-yl)pyrazin-2-yl)thio)-2-chlorophenyl)-1-(4-(2-(((2S,4R)-1-((S)-2-(1-fluorocyclopropane-1-carboxamido)-3,3-dimethylbutanoyl)-4-hydroxypyrrolidine-2-carboxamido)methyl)-5-(4-methylthiazol-5-yl)phenoxy)butanoyl)piperidine-4-carboxamide], the “SHP2 degradation (%) 10 nM” value turned out to be 11.7%, the “SHP2 degradation (%) 100 nM” value is listed as 51.7% and the “SHP2 degradation (%) 1000 nM” value worked out at 66.6%.

`Cc1ncsc1-c1ccc(CNC(=O)[C@@H]2C[C@@H](O)CN2C(=O)[C@@H](NC(=O)C2(F)CC2)C(C)(C)C)c(OCCCCCCN2CC(C(=O)Nc3cccc(Sc4cnc(N5CCC(C)(CN)CC5)cn4)c3Cl)C2)c1` [Example 19, (2S,4R)—N-(2-((6-(3-((3-((5-(4-(aminomethyl)-4-methylpiperidin-1-yl)pyrazin-2-yl)thio)-2-chlorophenyl)carbamoyl)azetidin-1-yl)hexyl)oxy)-4-(4-methylthiazol-5-yl)benzyl)-1-((S)-2-(1-fluorocyclopropane-1-carboxamido)-3,3-dimethylbutanoyl)-4-hydroxypyrrolidine-2-carboxamide]: the “SHP2 degradation (%) 100 nM” value is given as 31.5% and the “SHP2 degradation (%) 1000 nM” value is 78.0%.
